Activity calls are given as the source filed them. No cut-off for these calls is given here.

The test system of one experiment is SMMC-7721. As to the kind of experiment: Cytotoxicity against human SMMC7721 cells after 48 hrs by MTT assay. The experiment is classed as functional, cell-based. Particulars: SMMC-7721, 48 h. On the technique in general: Tetrazolium dyes change colour on reduction, which living cells bring about.
For a further experiment, the system named is A549. The experiment in a line: Cytotoxicity against human A549 cells after 48 hrs by MTT assay. The settings on record: A549, 48 h. The format is functional, cell-based.
Another experiment deals with HL-60. The experiment in a line: Cytotoxicity against human HL60 cells after 48 hrs by MTT assay. The settings on record: HL-60, 48 h. The experiment is classed as functional, cell-based.
Experiment [1] deals with MEF. As to the kind of experiment: Induction of apoptosis in Bax(-/-)/Bak(-/-) MEF after 48 hrs. The format is functional, cell-based. The settings on record: Mus musculus.
In a further experiment the test system is MCF7. As to the kind of experiment: Cytotoxicity against human MCF7 cells after 48 hrs by MTT assay. The experiment is classed as functional, cell-based. Particulars: MCF7, 48 h.
Experiment [2] has as its system MEF. The experiment in a line: Induction of apoptosis in Bax(-/-)/Bak(-/-) MEF at 10 uM after 24 to 48 hrs. The format is functional, cell-based. Particulars: Mus musculus.
Experiment [3] concerns SW480. The experiment in a line: Cytotoxicity against human SW480 cells after 48 hrs by MTT assay. The experiment is classed as functional, cell-based. Particulars: SW480, 48 h.
The test system of a further experiment is NCI/ADR-RES. The experiment in a line: Resistant factor, ratio of IC50 for human MCF7/ADR cells to IC50 for human MCF7 cells. The format is functional.
The nature of experiment [4]: Cytotoxicity against human MCF7/ADR cells after 48 hrs by MTT assay. The format is functional, cell-based. Particulars: NCI/ADR-RES.
The test system of experiment [5] is SW480. As to the kind of experiment: Induction of apoptosis in human SW480 cells assessed as early apoptotic cells at 20 uM after 24 hrs using annexin V-FITC and propidium iodide staining by flow cytometry (reference value: 1.4%). The experiment is classed as functional. A general note: Flow cytometry measures light scatter and fluorescence of single cells or particles in a stream.

Experiment [6] deals with MEF. The experiment in a line: Induction of apoptosis in Bax(-/-)/Bak(-/-) MEF assessed as early apoptotic cells at 20 uM after 24 hrs using annexin V-FITC and propidium iodide staining by flow cytometry (reference value: 0.6%). The experiment is classed as functional, Mus musculus.
Experiment [7] has as its system MEF. The experiment in a line: Induction of apoptosis in Bax(-/-)/Bak(-/-) MEF assessed as late apoptotic cells at 20 uM after 24 hrs using annexin V-FITC and propidium iodide staining by flow cytometry (reference value: 3.3%). The format is functional, Mus musculus.
In experiment [8] the test system is SW480. The experiment in a line: Induction of apoptosis in human SW480 cells assessed as late apoptotic cells at 20 uM after 24 hrs using annexin V-FITC and propidium iodide staining by flow cytometry (reference value: 1.0%). The format is functional.
For experiment [9], the system named is SW480. As to the kind of experiment: Induction of apoptosis in human SW480 cells assessed as activation of caspase activity at 20 uM after 24 hrs by CASPACE-FITC staining (reference value: 6.2%). The format is functional.
Experiment [10] relates to MEF. The experiment in a line: Induction of apoptosis in Bax(-/-)/Bak(-/-) MEF assessed as activation of caspase activity at 20 uM after 24 hrs by CASPACE-FITC staining (reference value: 12.2%). The format is functional, Mus musculus.
In experiment [11] the test system is MEF. The experiment in a line: Induction of apoptosis in Bax(-/-)/Bak(-/-) MEF assessed as activation of caspase activity at 10 uM after 24 hrs by CASPACE-FITC staining (reference value: 12.2%). The format is functional, Mus musculus.
The test system of experiment [12] is SW480. As to the kind of experiment: Induction of apoptosis in human SW480 cells assessed as late apoptotic cells at 10 uM after 24 hrs using annexin V-FITC and propidium iodide staining by flow cytometry (reference value: 1.0%). The format is functional.
Experiment [13] concerns SW480. The experiment in a line: Induction of apoptosis in human SW480 cells assessed as activation of caspase activity at 10 uM after 24 hrs by CASPACE-FITC staining (reference value: 6.2%). The format is functional.
Experiment [14] concerns MEF. The experiment in a line: Induction of apoptosis in Bax(-/-)/Bak(-/-) MEF assessed as early apoptotic cells at 10 uM after 24 hrs using annexin V-FITC and propidium iodide staining by flow cytometry (reference value: 0.6%). The format is functional, Mus musculus.
The subject of experiment [15] is SW480. As to the kind of experiment: Induction of apoptosis in human SW480 cells assessed as early apoptotic cells at 10 uM after 24 hrs using annexin V-FITC and propidium iodide staining by flow cytometry (reference value: 1.4%). The experiment is classed as functional.
The subject of experiment [16] is MEF. The experiment in a line: Induction of apoptosis in Bax(-/-)/Bak(-/-) MEF assessed as late apoptotic cells at 10 uM after 24 hrs using annexin V-FITC and propidium iodide staining by flow cytometry (reference value: 3.3%). The format is functional, Mus musculus.

Broadly, the IC50 is the concentration needed to halve the response being measured. A high value points to weaker potency. With `C=C1C(=O)[C@]23CC[C@H]1C[C@H]2[C@@]12CCC[C@@](C)(COC1=O)[C@H]2C[C@H]3O`, the IC50 was 3.96 µM in the experiment on SMMC-7721; 3.22 µM in the experiment with A549; 6.36 µM with HL-60; 1.74 µM with MEF [1]; 3.25 µM in the experiment with MCF7; 3.58 µM in the experiment with SW480 [3]. Also, the outcome with MEF [2] was Active.
`C=C1C(=O)[C@@]23CC[C@@H](C[C@H]2[C@@]24CCC[C@@](C)(CN(CCO)C2)[C@@H]14)C(=C)[C@@H]3O`: the IC50 in the experiment with SMMC-7721 worked out at 1.48 µM; with A549, 3.04 µM; in the experiment with HL-60, 4.82 µM; with MCF7 it was 6.98 µM; with SW480 [3] it was 9.84 µM. For the same compound, in the experiment with MEF [2], the result was Active.
For `C=C1C(=O)[C@]23CC[C@H]1C[C@H]2[C@@]12CCC[C@@]4(C)C(=O)N[C@H]1O[C@@H]3C[C@@H]24`, in the experiment on NCI/ADR-RES, the “Ratio IC50” value is given as 1.4. In addition, the IC50 turned out to be 15.7 µM with SMMC-7721; 19 µM in the experiment with A549; 18.6 µM in the experiment with HL-60; 15.7 µM in the experiment on MCF7; 28.3 µM in [4]; 14.2 µM with SW480 [3]. Besides, the result in the experiment with MEF [2] was Active.
As to `COc1cccc2c1C(=O)c1c(O)c3c(c(O)c1C2=O)C[C@@](O)(C(=O)CO)C[C@@H]3O[C@H]1C[C@H](N)[C@H](O)[C@H](C)O1` [DOXORUBICIN], in the experiment on NCI/ADR-RES, the “Ratio IC50” value was 888.75. Also, the results for the IC50 (in the experiment on MCF7; in [4]) were 0.077 µM and 68.4 µM, respectively.
`C=C1C(=O)[C@]23CC[C@H]1C[C@H]2[C@@]12CCC[C@@]4(C)CN(CCO)[C@H]1O[C@@H]3C[C@H]42`: the concentration for half-maximal inhibition (IC50) in the experiment on SMMC-7721 amounted to 23.6 µM; with A549, 18.6 µM; in the experiment on HL-60, 19.3 µM; in the experiment with MCF7, 10.3 µM; in the experiment on SW480 [3], 14 µM. For the same compound, the outcome in the experiment on MEF [2] was Active.
In the case of `C=C1C(=O)[C@]23CC[C@H]1C[C@H]2[C@@]12CCC[C@@]4(C)C5OCCN5[C@H]1O[C@@H]3C[C@@H]24` (stereo partly drawn), the Activity with SW480 [5] came out at 16.9%; with MEF [6] it was 1.9%; with MEF [7], 86.2%; in the experiment with SW480 [8], 15.9%; in the experiment on SW480 [9] it was 18.2%; in the experiment on MEF [10] it was 87.8%. Moreover, the IC50 with SMMC-7721 amounted to 1.04 µM; in the experiment with A549 it was 2.03 µM; in the experiment on HL-60 it was 1.34 µM; in the experiment on MEF [1] it was 2.24 µM; with MCF7, 0.67 µM; in the experiment with SW480 [3], 1.97 µM. Further, the result in the experiment with MEF [2] was Active.
As for `C=C1C(=O)[C@]23CC[C@H]1C[C@H]2[C@@]12CCC[C@@]4(C)C(=O)N(CCO)[C@H]1O[C@@H]3C[C@@H]24`, the IC50 in the experiment on SMMC-7721 came out at 18.4 µM; with A549, 17.9 µM; with HL-60 it was 18.6 µM; with MCF7, 13.2 µM; in the experiment with SW480 [3], 12.4 µM. The outcome in the experiment on MEF [2] was Active.
On to `C=C1C(=O)[C@]23CC[C@H]1C[C@H]2[C@@]12CCC[C@@](C)(CN(CCO)C1)[C@H]2C(=C)C3=O`, for which the Activity in the experiment on SW480 [5] is 13.1%; with MEF [6] it was 28.2%; in the experiment with MEF [7], 76.8%; with SW480 [8], 44.2%; in the experiment on SW480 [9], 29.8%; in the experiment with MEF [10] it was 97.1%. For the same compound, the IC50 with SMMC-7721 amounted to 11.5 µM; in the experiment on A549, 6.5 µM; with HL-60, 6.61 µM; with MEF [1], 1.81 µM; with MCF7, 3.57 µM; with SW480 [3] it was 2.81 µM. In addition, the result in the experiment on MEF [2] was Active.
In the case of `C=C1C(=O)[C@]23CC[C@H]1C[C@H]2[C@@]12CCC[C@@](C)(C(=O)N4CCO[C@H]41)[C@H]2C[C@H]3O`, the Activity is on record as 46.7% in the experiment on SW480 [5]; 21.7% with MEF [6]; 14.3% in the experiment with MEF [11]; 8.6% in the experiment with SW480 [12]; 12.1% in the experiment on SW480 [13]; 68.3% in the experiment on MEF [7]. The Activity with SW480 [8] was found to be 40.1%; in the experiment on MEF [14] it was 8.6%; with SW480 [15], 25.5%; in the experiment with MEF [16] it was 2.1%; with SW480 [9], 60.1%; in the experiment on MEF [10], 93.2%. The “Ratio IC50” value with NCI/ADR-RES is 1.66. In addition, the IC50 in the experiment with SMMC-7721 was determined as 2.63 µM; with A549 it was 3.09 µM; in the experiment with HL-60, 2.73 µM; in the experiment with MEF [1], 3.38 µM; in the experiment on MCF7, 1.12 µM; in experiment [4] it was 8.8 µM. Further, the IC50 in the experiment on SW480 [3] was 2.81 µM. Also, the result in the experiment on MEF [2] was Active.
As to `C=C1C(=O)[C@]23CC[C@H]1C[C@H]2[C@@]12CCC[C@@](C)(CN(CCO)C1)[C@H]2CC3=O`, the Activity is on record as 10.9% with SW480 [5]; 11.7% with MEF [6]; 52.2% with MEF [7]; 13.3% with SW480 [8]; 10.9% in the experiment with SW480 [9]; 66.6% in the experiment with MEF [10]. Moreover, the IC50 in the experiment with SMMC-7721 came to 15.2 µM; with A549, 9.24 µM; with HL-60 it was 14.3 µM; in the experiment on MEF [1], 4.52 µM; in the experiment with MCF7, 15.7 µM; in the experiment on SW480 [3] it was 11.8 µM. Also, the outcome in the experiment on MEF [2] was Active.
For `C=C1C(=O)[C@]23CC[C@H]1C[C@H]2[C@@]12CCC[C@@](C)(CN(CCO)C1)[C@H]2C[C@H]3O`, the IC50 in the experiment with SMMC-7721 came out at 11.2 µM; in the experiment on A549, 9.92 µM; in the experiment on HL-60, 7.95 µM; with MCF7, 16.6 µM; in the experiment on SW480 [3], 14.4 µM. For the same compound, in the experiment on MEF [2], the result was Active.
For `C=C1C(=O)[C@]23CC[C@H]1C[C@H]2[C@@]12CCC[C@@](C)(CN(CCO[Si](C)(C)C(C)(C)C)C1)[C@H]2C(=C)C3=O`, the IC50 with SMMC-7721 came to 2.63 µM; in the experiment on A549 it was 1.55 µM; in the experiment on HL-60 it was 1.39 µM; with MCF7, 2.9 µM; in the experiment on SW480 [3], 2.78 µM. The result with MEF [2] was Active.
